Data taken from US6620916B1, “Modified physiologically active proteins and medicinal compositions containing the same” (Ajinomoto Co., Inc., priority 1996, dated 2003).
Entries after “also recorded” stand apart in the source; their conditions may differ.

How the values were obtained:
ASGR = target: T1, ASGR (Mus musculus, UniProt P24721+P34927); assay: Hepatocyte binding test with 125I-labeled ligands, Scatchard analysis; settings: mouse hepatocytes, 4° C., 2 hours
T1 construct: endogenous in cells; host or cells: primary hepatocytes from C57BL/6 mice (7W, male)
T1 sequence (P34927 1-284): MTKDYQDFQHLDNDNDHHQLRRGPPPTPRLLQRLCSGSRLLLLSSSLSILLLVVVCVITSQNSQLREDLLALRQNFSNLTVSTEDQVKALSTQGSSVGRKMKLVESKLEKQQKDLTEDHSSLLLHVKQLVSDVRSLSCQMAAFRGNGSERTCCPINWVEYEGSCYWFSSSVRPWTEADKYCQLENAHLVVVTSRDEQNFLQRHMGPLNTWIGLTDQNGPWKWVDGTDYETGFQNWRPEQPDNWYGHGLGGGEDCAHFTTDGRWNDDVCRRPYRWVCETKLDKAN
T1 sequence (P24721 1-301): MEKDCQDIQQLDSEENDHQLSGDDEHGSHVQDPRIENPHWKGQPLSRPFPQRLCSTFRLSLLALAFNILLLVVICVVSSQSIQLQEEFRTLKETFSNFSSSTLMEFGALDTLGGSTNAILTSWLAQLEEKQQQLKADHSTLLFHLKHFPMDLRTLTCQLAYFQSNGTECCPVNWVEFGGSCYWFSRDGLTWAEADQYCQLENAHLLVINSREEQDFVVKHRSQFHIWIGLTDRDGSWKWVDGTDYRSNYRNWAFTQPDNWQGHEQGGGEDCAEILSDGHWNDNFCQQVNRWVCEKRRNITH
Protocol: The test for binding of a modified product to hepatocytes was conducted using mouse-separated hepatocytes prepared by the collagenase reflux method which is a modification of the method of Berry et al. (M. N. Berry et al., J. Cell Biol., 43, 506-520 (1969)). That is, seven mice (C57BL/6, 7W, male) were refluxed with a collagenase (type I, supplied by Wako Pure Chemical Industries, Ltd.) and each liver thereof was then severed. Each liver was filtered using a cell filter. Hepatocytes were then collected through centrifugation at a low rate (50 g×1 min), and incubated for from 1 to 4 hours in a D-MEM medium containing 10% FBS (supplied by Gibco, containing 100 U/ml of penicillin, 100 μg/ml of streptomycin and 50 μg/ml of gentamicin) using a tissue culture dish of 150 mm (supplied by Iwaki Garasu K.K.). […]
The hepatocyte binding test was conducted by the method of Chang et al. (T. Chang et al., BBA 942. 57-64 (1988)). […] Thereafter, the radioactivity by the non-specific binding was subtracted from the radioactivity of 0.8 ml of 1 ml of the 0.1 N NaOH solution containing 0.5% SDS, and the radioactivity of the total amount thereof was calculated from the above-obtained value. The thus-calculated value was defined as an amount of a bound fraction. […] The total protein amount of the cells was calculated by the Lorry method using 0.1 ml of the solution. […]

[1] = system: mouse-separated hepatocytes; assay: Uptake of 125I-labeled modified product into hepatocytes; assay type: cell-based; settings: 24 nM, 37° C.
Protocol: The test for uptake into hepatocytes was also conducted according to the method of Chang et al (T. Chang et al., BBA 942. 57-64 (1988)). The cells which were approximately in the almost confluent state were washed once with a D-MEM medium (pH 7.4) containing 0.1% BSA and 10 mM Hepes, and the buffer was added thereto. The mixture was incubated in 5% CO2 at 37° C. for 30 minutes. […] On the other hand, the non-specific uptake was conducted by adding 100 mM N-acetylgalactosamine in each of the labeled solutions. Each plate incubated was moved on an ice bath after the reaction. A part of the medium was sampled, and a D-PBS solution (free from Ca^2+ and Mg^2+) containing 20 mM EGTA cooled at 4° C. was added thereto. The mixture was allowed to stand for 5 minutes. This washing was repeated twice. Further, the plate was washed once with a D-PBS solution (free from Ca^2+ and Mg^2+) cooled, and then allowed to stand at −20° C. for 30 minutes or more. The radioactivity by the non-specific binding was subtracted from the radioactivity of 0.8 ml of 1 ml of the 0.1 N NaOH solution containing 0.5% SDS in each well, and the radioactivity of the total amount thereof was calculated from the above-obtained value. The thus-calculated value was defined as an amount of an uptake fraction. Meanwhile, a value obtained by subtracting the radioactivity by the non-specific degradation from the radioactivity of the total trichloroacetic acid-soluble fraction in the medium was defined as an amount of a degradation fraction. The uptake tast was conducted with each point of n=3. The total protein amount of the cells was calculated by the Lorry method with respect to 0.1 ml of the solution.

Compound | dissociation constant (Kd1) of high affinity site (ASGR) | time to saturation of uptake [1] [h] | degradation component ([1]; 0-4 hours) | uptake component in hepatocytes ([1]; 0-4 hours)
CC(=O)NC1C(OCCOCCOCCNC(=O)CCC(NC(=O)CCC(NC(=O)CCCCCNC(=O)C(Cc2ccc(O)cc2)NC(=O)OC(C)(C)C)C(=O)NCCOCCOCCOC2OC(CO)C(O)C(O)C2NC(C)=O)C(=O)NCCOCCOCCOC2OC(CO)C(O)C(O)C2NC(C)=O)OC(CO)C(O)C1O (centres unmarked) [(GalNAc)3-Tyr-Boc] | in the order level of multi-ten nM; also recorded: lower than that of (Gal)3-Tyr-Boc |  |  | 
CC(C)(C)OC(=O)NC(Cc1ccc(O)cc1)C(=O)NCCCCCC(=O)NC(CCC(=O)NC(CCC(=O)NCCOCCOCCOC1OC(CO)C(O)C(O)C1O)C(=O)NCCOCCOCCOC1OC(CO)C(O)C(O)C1O)C(=O)NCCOCCOCCOC1OC(CO)C(O)C(O)C1O (centres unmarked) [(Gal)3-Tyr-Boc] | in the order level of multi-ten nM |  |  | 
ASOR: asialoorosomucoid produced from human orosomucoid, natural ligand of ASGR |  | 1 | gradually increased with the lapse of time | observed after 30 minutes of the incubation
